The source of these data is US20140113898A1, “BISARYLSULFONE AND DIALKYLARYLSULFONE COMPOUNDS AS CALCIUM CHANNEL BLOCKERS” (Zalicus Pharmaceuticals Ltd., priority 2010, published 2014).

pIC50: −log10 of the molar value. Where two headings read alike, the source gives them in different places.

What all share (format): cell-based
The target in one experiment is T1, CaV2.2 (Homo sapiens, UniProt Q00975).
T1 construct: expressed in transfected cells; host or cells: unnamed doxycycline-inducible cell line
Nature of the experiment: High-throughput CaV2.2/Kir2.3 FLIPR fluorescent assay. The following applies: Fluo-4 FLIPR, closed or inactivated state not stated, read-out: FLIPR data CaV2.2. In short, it runs like this:
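Doxycycline-induced cells moved to 29 °C on assay day and were loaded with 4.4 μM Fluo-4. They were held in 2 mM KCl (closed state) or 12.5 mM KCl (inactivated state) buffer, pH 7.4, then depolarized with 130 mM KCl. Fluorescence was read 3 min on FLIPR, and IC50 was obtained from logistic fits.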

In a further experiment the target is T2, CaV3.1 (Homo sapiens, UniProt O43497).
T2 construct: expressed in transfected cells; host or cells: unnamed doxycycline-inducible cell line
T2 sequence (O43497 whole entry): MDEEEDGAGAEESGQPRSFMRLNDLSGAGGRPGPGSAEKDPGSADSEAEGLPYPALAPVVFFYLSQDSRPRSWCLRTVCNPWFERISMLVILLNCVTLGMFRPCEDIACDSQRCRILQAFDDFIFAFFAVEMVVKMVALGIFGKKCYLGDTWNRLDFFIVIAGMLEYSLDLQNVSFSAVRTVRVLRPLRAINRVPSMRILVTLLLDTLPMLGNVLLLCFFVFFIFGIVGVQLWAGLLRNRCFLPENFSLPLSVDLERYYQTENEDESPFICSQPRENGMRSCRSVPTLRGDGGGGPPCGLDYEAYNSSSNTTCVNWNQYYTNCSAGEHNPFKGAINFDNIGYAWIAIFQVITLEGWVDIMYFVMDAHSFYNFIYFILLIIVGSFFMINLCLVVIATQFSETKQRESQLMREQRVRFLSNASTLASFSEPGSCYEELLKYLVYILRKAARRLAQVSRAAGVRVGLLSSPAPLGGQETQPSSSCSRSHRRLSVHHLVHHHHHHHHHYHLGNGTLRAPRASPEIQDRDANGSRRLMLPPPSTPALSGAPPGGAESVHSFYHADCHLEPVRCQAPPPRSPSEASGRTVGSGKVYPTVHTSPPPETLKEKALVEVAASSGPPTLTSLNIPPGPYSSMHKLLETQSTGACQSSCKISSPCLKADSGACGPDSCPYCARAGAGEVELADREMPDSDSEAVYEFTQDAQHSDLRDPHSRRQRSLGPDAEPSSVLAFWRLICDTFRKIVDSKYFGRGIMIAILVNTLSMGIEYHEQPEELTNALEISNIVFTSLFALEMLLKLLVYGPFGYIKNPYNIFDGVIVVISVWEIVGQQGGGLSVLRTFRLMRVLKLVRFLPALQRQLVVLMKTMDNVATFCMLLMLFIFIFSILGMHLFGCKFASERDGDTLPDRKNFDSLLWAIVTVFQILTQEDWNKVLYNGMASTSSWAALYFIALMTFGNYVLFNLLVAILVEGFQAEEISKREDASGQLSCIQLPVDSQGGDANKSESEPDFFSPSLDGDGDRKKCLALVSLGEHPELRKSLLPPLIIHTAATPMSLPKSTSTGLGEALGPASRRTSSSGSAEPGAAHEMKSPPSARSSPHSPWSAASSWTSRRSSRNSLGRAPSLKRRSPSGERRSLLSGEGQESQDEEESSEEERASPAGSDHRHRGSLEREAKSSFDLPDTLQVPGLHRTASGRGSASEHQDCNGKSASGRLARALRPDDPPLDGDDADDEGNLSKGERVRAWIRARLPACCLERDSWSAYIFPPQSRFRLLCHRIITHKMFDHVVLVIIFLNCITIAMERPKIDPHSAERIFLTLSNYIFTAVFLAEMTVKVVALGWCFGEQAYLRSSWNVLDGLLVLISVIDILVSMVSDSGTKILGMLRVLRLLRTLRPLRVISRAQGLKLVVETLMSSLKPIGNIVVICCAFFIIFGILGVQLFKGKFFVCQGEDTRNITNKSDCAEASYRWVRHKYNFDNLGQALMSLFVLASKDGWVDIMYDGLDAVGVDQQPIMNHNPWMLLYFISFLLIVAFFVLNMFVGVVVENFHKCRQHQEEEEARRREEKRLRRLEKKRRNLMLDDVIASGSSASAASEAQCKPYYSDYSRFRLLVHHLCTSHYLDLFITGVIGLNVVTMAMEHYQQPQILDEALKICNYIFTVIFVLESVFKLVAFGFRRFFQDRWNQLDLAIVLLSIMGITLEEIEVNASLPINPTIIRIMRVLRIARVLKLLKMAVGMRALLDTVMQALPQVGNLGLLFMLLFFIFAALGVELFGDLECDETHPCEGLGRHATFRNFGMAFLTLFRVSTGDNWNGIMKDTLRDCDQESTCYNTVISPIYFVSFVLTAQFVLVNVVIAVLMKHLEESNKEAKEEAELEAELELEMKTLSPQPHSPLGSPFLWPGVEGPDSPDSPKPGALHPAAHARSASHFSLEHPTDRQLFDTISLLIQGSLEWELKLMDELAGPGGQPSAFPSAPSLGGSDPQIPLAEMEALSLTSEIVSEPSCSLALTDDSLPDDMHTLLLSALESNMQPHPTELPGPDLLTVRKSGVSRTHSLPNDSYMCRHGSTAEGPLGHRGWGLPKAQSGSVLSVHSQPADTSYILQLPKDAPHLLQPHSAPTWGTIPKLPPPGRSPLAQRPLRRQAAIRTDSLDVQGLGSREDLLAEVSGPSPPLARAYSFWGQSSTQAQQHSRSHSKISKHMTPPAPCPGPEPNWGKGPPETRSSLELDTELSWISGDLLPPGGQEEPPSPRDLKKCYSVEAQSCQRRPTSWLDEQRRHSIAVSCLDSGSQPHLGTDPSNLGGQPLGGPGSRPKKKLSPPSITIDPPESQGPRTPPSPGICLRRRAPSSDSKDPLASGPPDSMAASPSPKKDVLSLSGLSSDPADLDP
Nature of the experiment: High-throughput CaV3.1 T-type FLIPR fluorescent assay. The conditions noted are these: Fluo-4 FLIPR. The protocol: Cells were plated in 384-well, clear-bottom, black-walled, poly-D-lysine coated plates (Becton Dickinson, Franklin Lake, N.J.) 2 days prior to use in the FLIPR assay. 100 μL of cells (2.0×10^6 cell/mL) containing doxycyline (Sigma-Aldrich, 1.5 μg/mL; to induce channel expression) were added to each well using a Multidrop (Thermo Scientific, Waltham, Mass.) and were maintained in 5% CO2 incubator at 37° C. On the morning of the assay, cells were transferred to a 5% CO2 incubator at 29° C.
Cells were washed with a wash buffer containing (in mM): 118 NaCl, 18.4 HEPES, 11.7 D-glucose, 0.05 CaCl2, 0.5 MgSO4, 1 KCl, and 1.2 KH2PO4, with the pH adjusted to 7.2 with NaOH. 4.4 μM of the fluorescent indicator dye, Fluo-4 (Invitrogen), prepared in pluronic acid
(Sigma-Aldrich), was loaded into the wells and incubated for 45 minutes at 29° C. in 5% CO2. Cells were then rinsed with the following low Ca^2+ buffer (in mM): 0.34 Na2HPO4, 4.2 NaHCO3, 0.44 KH2PO4, 0.41 MgSO4, 0.49 MgCl2-6H2O, 20 HEPES, 5.5 D-Glucose, 137 NaCl, 5.3 KCl, and 0.001 CaCl2, with 0.1% BSA and the pH adjusted to 7.2 with NaOH. Concentration-dependent response curves were generated from 5 mM stock solutions prepared in DMSO (Sigma-Aldrich) and diluted in the buffer containing low Ca^2+ and incubated for 20 minutes at 29° C. in 5% CO2. Calcium entry was evoked with an addition of (in mM): 0.34 Na2HPO4, 4.2 NaHCO3, 0.44 KH2PO4, 0.41 MgSO4, 0.49 MgCl2-6H2O, 20 HEPES, 5.5 D-Glucose, 137 NaCl, 5.3 KCl, and 6 CaCl2, with 0.1% BSA and the pH adjusted to 7.2 with NaOH. A change in the Fluo-4 fluorescence signal was assessed using FLIPR^TETRA™ instrument (Molecular Devices, Sunnyvale, Calif.) for 3 minutes following the elevation of extracellular KCl using an illumination wavelength of 470-495 nm with emissions recorded at 515-575 nm.
Concentration-dependent response curves were obtained by comparing the fluorescence signal in the presence of compound and fitted with a logistic function (1) to obtain the concentration that inhibited 50% (IC50) of the RLU signal using OriginPro v.7.5 software (OriginLab, Northampton, Mass.).
To assess the quality of the FLIPR assays the Z-factor (2) was used to quantify the suitability of the assay conditions using the following equation: […]
Data are expressed as mean and standard deviation (SD).

For another experiment, the target named is T3, CaV3.2 (Homo sapiens, UniProt O95180).
T3 construct: expressed in transfected cells; host or cells: unnamed doxycycline-inducible cell line
T3 sequence (O95180 whole entry): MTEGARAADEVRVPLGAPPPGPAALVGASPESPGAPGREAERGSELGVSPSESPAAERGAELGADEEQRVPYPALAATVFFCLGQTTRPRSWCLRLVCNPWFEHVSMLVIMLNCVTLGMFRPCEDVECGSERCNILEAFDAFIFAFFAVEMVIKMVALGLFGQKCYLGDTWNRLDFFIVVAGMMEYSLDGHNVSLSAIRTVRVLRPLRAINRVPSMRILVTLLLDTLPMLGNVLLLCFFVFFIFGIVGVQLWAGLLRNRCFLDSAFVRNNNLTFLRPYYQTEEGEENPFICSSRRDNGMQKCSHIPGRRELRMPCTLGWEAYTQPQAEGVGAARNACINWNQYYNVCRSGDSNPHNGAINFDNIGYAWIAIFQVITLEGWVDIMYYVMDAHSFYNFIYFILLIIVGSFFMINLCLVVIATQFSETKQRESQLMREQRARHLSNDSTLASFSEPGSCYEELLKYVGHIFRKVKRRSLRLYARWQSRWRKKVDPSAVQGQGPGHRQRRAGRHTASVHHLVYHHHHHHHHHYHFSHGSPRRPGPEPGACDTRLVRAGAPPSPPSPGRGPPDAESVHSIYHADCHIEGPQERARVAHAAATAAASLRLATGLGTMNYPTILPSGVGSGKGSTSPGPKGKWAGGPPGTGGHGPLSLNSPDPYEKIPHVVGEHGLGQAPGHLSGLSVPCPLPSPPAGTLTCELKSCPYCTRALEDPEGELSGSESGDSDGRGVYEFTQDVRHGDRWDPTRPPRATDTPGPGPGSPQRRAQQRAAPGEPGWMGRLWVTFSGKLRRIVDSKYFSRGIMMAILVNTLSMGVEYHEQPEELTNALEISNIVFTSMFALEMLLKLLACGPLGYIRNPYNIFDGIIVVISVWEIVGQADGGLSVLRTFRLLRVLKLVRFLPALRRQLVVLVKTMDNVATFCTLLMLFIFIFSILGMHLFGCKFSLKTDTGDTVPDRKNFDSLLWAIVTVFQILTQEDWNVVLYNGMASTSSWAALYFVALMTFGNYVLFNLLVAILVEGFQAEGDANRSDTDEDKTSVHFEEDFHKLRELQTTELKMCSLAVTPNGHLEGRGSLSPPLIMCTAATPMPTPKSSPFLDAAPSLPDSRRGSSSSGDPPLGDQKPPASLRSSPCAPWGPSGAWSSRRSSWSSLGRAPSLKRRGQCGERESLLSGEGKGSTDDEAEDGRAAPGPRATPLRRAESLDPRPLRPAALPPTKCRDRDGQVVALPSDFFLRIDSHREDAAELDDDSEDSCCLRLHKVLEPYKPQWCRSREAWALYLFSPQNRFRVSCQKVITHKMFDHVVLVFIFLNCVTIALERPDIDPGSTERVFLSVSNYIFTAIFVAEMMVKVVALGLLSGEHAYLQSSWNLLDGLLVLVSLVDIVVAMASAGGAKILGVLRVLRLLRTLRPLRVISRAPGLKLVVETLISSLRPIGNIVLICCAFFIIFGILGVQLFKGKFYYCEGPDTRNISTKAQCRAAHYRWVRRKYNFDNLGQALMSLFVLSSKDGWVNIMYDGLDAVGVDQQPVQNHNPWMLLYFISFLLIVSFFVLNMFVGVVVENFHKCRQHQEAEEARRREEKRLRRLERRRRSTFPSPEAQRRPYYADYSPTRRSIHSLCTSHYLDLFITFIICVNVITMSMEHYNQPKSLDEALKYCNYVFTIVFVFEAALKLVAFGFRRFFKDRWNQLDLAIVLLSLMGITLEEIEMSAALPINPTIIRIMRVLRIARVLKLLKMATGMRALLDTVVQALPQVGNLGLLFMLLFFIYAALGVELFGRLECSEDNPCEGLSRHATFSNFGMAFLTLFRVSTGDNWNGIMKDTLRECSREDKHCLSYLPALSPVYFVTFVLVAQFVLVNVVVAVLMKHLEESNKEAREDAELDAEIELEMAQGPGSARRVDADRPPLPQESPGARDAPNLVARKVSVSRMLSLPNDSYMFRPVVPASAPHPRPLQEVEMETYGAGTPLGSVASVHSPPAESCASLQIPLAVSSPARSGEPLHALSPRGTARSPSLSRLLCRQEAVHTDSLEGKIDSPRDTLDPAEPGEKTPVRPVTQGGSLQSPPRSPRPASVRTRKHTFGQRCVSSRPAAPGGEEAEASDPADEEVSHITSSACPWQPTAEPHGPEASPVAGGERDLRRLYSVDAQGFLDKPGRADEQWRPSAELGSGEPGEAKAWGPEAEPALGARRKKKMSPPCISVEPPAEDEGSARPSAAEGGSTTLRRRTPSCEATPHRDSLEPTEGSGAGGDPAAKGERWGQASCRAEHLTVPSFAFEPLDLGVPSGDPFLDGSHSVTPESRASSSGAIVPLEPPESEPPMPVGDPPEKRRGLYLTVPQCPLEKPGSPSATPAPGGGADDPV
The experiment can be described thus: High-throughput CaV3.2/Kir2.3 T-type FLIPR fluorescent assay. The conditions noted are these: Fluo-4 FLIPR, closed or inactivated state not stated. Summed up:
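Doxycycline-induced cells loaded with Fluo-4, preincubated 20 min at 29°C with compound in 2 mM KCl (closed-state) or 7.6 mM KCl (inactivated-state) buffer, pH 7.4. Calcium entry triggered by 12 mM or 14.5 mM KCl respectively; fluorescence read 3 min by FLIPR, IC50 from logistic fit.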

In the case of `O=C(NCc1ccc(S(=O)(=O)c2cccc(C(F)(F)F)c2)cc1)c1ccc(Cl)c(OC(F)(F)F)c1` [Compound 15, 4-chloro-3-(trifluoromethoxy)-N-(4-((3-(trifluoromethyl)phenyl)sulfonyl)benzyl)benzamide], the pIC50 at CaV2.2 (Table 4) is 6.13; at CaV3.1 (Table 4), 5.86; at CaV3.2 (Table 4), 6.31.
`O=C(NCc1ccc(S(=O)(=O)c2cccc(C(F)(F)F)c2)cc1)c1ccc(C(F)(F)F)nc1` [Compound 3, 6-(trifluoromethy)-N-(4-((3-(trifluoromethyl)phenyl)sulfonyl)benzyl)nicotinamide]: the pIC50 on CaV2.2 (Table 4) is 6.29; on CaV3.1 (Table 4), 5.87; against CaV3.2 (Table 4), 6.19.
Turning to `COc1cc(C(=O)NCc2cccc(S(=O)(=O)c3cccc(C(F)(F)F)c3)c2)cc(Cl)n1` [Compound 30], the results for the pIC50 on CaV2.2 (Table 4), at CaV3.1 (Table 4) and on CaV3.2 (Table 4) were 6.51, 5.95 and 6.29, respectively.
For `CC(C)(C(=O)NCc1cccc(C(F)(F)F)c1)S(=O)(=O)c1cccc(C(F)(F)F)c1` [Compound 124, 2-methyl-N-(3-(trifluoromethyl)benzyl)-2-((3-(trifluoromethyl)phenyl)sulfonyl)propanamide], the pIC50 is 6.12 on CaV2.2 (Table 5), 5.37 against CaV3.1 (Table 5) and 5.25 on CaV3.2 (Table 5).
For `CC(C)(CCN1CCn2nc(C(F)(F)F)cc2C1=O)S(=O)(=O)c1cccc(C(F)(F)F)c1` [Compound 187, 5-(3-methyl-3-((3-(trifluoromethyl)phenyl)sulfonyl)butyl)-2-(trifluoromethyl)-6,7-dihydropyrazolo[1,5-a]pyrazin-4(5H)-one], the pIC50 at CaV2.2 (Table 5) is 6.38; against CaV3.1 (Table 5) it was 5.30; against CaV3.2 (Table 5), 5.37.
Consider `O=C(NCc1ccc(S(=O)(=O)c2cccc(C(F)(F)F)c2)cn1)c1ccc(C(F)(F)F)cn1` [Compound 91, 5-(trifluoromethyl)-N-((5-((3-(trifluoromethyl)phenyl)sulfonyl)pyridin-2-yl)methyl)picolinamide], for which the results for the pIC50 at CaV2.2 (Table 4), at CaV3.1 (Table 4) and against CaV3.2 (Table 4) were 6.08, 5.73 and 5.89, respectively.
For `O=C1c2cc(C(F)(F)F)nn2CCN1Cc1cccc(S(=O)(=O)c2cccc(C(F)(F)F)c2)c1` [Compound 34, 2-(trifluoromethyl)-5-(3-((3-(trifluoromethyl)phenyl)sulfonyl)benzyl)-6,7-dihydropyrazolo[1,5-a]pyrazin-4(5H)-one], the figures for the pIC50 on CaV2.2 (Table 4), against CaV3.1 (Table 4) and on CaV3.2 (Table 4) were 6.23, 5.79 and 6.01, respectively.
For `CC(C)(CNC(=O)C(C)(C)S(=O)(=O)c1cccc(C(F)(F)F)c1)S(=O)(=O)c1cccc(C(F)(F)F)c1` [Compound 149, 2-methyl-N-(2-methyl-2-((3-(trifluoromethyl)phenyl)sulfonyl)propyl)-2-((3-(trifluoromethyl)phenyl)sulfonyl)propanamide], the pIC50 is 6.34 at CaV2.2 (Table 5), 5.41 against CaV3.1 (Table 5) and 5.54 against CaV3.2 (Table 5).
`CC(C)S(=O)(=O)c1cc(C(F)(F)F)cnc1C(=O)NCc1cccc(S(=O)(=O)c2cccc(C(F)(F)F)c2)c1` [Compound 25, 3-(isopropylsulfonyl)-5-(trifluoromethyl)-N-(3-((3-(trifluoromethyl)phenyl)sulfonyl)benzyl)picolinamide]: the values for the pIC50 on CaV2.2 (Table 4), against CaV3.1 (Table 4) and at CaV3.2 (Table 4) were 6.77, 5.80 and 5.76, respectively.
As for `O=C(NCc1ccc(S(=O)(=O)c2cccc(C(F)(F)F)c2)cn1)c1ccc(Cl)c(F)c1` [Compound 88, 4-chloro-3-fluoro-N-((5-((3-(trifluoromethyl)phenyl)sulfonyl)pyridin-2-yl)methyl)benzamide], the pIC50 on CaV2.2 (Table 4) is 6.09; at CaV3.1 (Table 4), 6.05; against CaV3.2 (Table 4), 6.09.
On to `O=C(NCc1cc(S(=O)(=O)c2cccc(C(F)(F)F)c2)ccn1)[C@@H]1C[C@@H](C2CCCCC2)CN1` [Compound 118, (2S,4S)-4-cyclohexyl-N-((4-((3-(trifluoromethyl)phenyl)sulfonyl)pyridin-2-yl)methyl)pyrrolidine-2-carboxamide], for which the figures for the pIC50 on CaV2.2 (Table 4), against CaV3.1 (Table 4) and on CaV3.2 (Table 4) were 6.12, 5.32 and 5.62, respectively.
The matching figures for `O=C1c2cc(C(F)(F)F)nn2CCN1Cc1ccccc1S(=O)(=O)c1cccc(C(F)(F)F)c1` [Compound 35, 2-(trifluoromethyl)-5-(2-((3-(trifluoromethyl)phenyl)sulfonyl)benzyl)-6,7-dihydropyrazolo[1,5-a]pyrazin-4(5H)-one]: 5.91, 5.73 and 5.76.
The matching figures for `CS(=O)(=O)c1cc(C(F)(F)F)ccc1C(=O)NCc1ccc(S(=O)(=O)c2cccc(C(F)(F)F)c2)cc1` [Compound 11, 2-(methylsulfonyl)-4-(trifluoromethyl)-N-(4-((3-(trifluoromethyl)phenyl)sulfonyl)benzyl)benzamide]: 6.39, 5.97 and 6.23.
Regarding `Cn1nc(C(F)(F)F)cc1C(=O)NCc1ccccc1S(=O)(=O)c1cccc(C(F)(F)F)c1` [Compound 41, 1-methyl-3-(trifluoromethyl)-N-(2-((3-(trifluoromethyl)phenyl)sulfonyl)benzyl)-1H-pyrazole-5-carboxamide], the pIC50 at CaV2.2 (Table 4) was 6.42; against CaV3.1 (Table 4), 6.04; against CaV3.2 (Table 4), 5.86.
On to `CC(C)(C(=O)Nc1ccc(Oc2ccc(C(F)(F)F)cn2)nc1)S(=O)(=O)c1cccc(OC(F)(F)F)c1` [Compound 123, 2-methyl-2-((3-(trifluoromethoxy)phenyl)sulfonyl)-N-(6-((5-(trifluoromethyl)pyridin-2-yl)oxy)pyridin-3-yl)propanamide], for which the values for the pIC50 at CaV2.2 (Table 5), on CaV3.1 (Table 5) and against CaV3.2 (Table 5) were 6.04, 5.30 and 5.52, respectively.
For `O=C(NCc1cccc(S(=O)(=O)c2cccc(C(F)(F)F)c2)c1)c1cn2cc(C(F)(F)F)ccc2n1` [Compound 32, 6-(trifluoromethyl)-N-(3-((3-(trifluoromethyl)phenyl)sulfonyl)benzyl)imidazo[1,2-a]pyridine-2-carboxamide], the figures for the pIC50 at CaV2.2 (Table 4), on CaV3.1 (Table 4) and against CaV3.2 (Table 4) were 6.80, 5.85 and 6.43, respectively.
Regarding `O=C(NCc1ccc(S(=O)(=O)c2cccc(C(F)(F)F)c2)cc1)c1cnc(C(F)(F)F)nc1` [Compound 8, 2-(trifluoromethyl)-N-(4-((3-(trifluoromethyl)phenyl)sulfonyl)benzyl)pyrimidine-5-carboxamide], the pIC50 was 6.29 at CaV2.2 (Table 4), 5.67 against CaV3.1 (Table 4) and 6.04 at CaV3.2 (Table 4).
With `O=C(NCc1cccc(S(=O)(=O)c2cccc(C(F)(F)F)c2)c1)c1ccnc(C(F)(F)F)n1` [Compound 27, 2-(trifluoromethyl)-N-(3-((3-(trifluoromethyl)phenyl)sulfonyl)benzyl)pyrimidine-4-carboxamide], the pIC50 is 6.51 at CaV2.2 (Table 4), 5.47 against CaV3.1 (Table 4) and 5.61 at CaV3.2 (Table 4).
`CC(C)(C(=O)Nc1ccc(Oc2ccc(F)c(C(F)(F)F)c2)nc1)S(=O)(=O)c1cccc(OC(F)(F)F)c1` [Compound 119, N-(6-(4-fluoro-3-(trifluoromethyl)phenoxy)pyridin-3-yl)-2-methyl-2-((3-(trifluoromethoxy)phenyl)sulfonyl)propanamide]: the figures for the pIC50 on CaV2.2 (Table 5), on CaV3.1 (Table 5) and against CaV3.2 (Table 5) were 6.70, 5.24 and 5.37, respectively.
